Laboratory results from patent US10995359B2, “Method for determining drug-sensitive human cell lines by analysis method in which measurement of activity of two types of protein kinase is used” (NITTO BOSEKI CO., LTD., priority 2015, dated 2021).

Tests used:
Test in all cases: Drug sensitivity assay (cell growth test), sulforhodamine B
Format in all cases: cell-based
[1] = test system: HCC1143 (BL1) cells; conditions: Homo sapiens, 72 hours, read-out: inhibition rate (%) by trametinib, classification by grid analysis
Protocol: (§1) Cultured cells were treated with a MEK inhibitor and a PI3K inhibitor in various concentrations, and cell lines sensitive to MEK and PI3K were classified by calculating a cell growth inhibition rate. The culture method and analysis method are as follows.
(§2) Thirteen types of cells used in the present study, HCC38 (BL1), MDA-MB-231 (MSL), DU4475 (IM), HCC1187 (IM), HCC1143 (BL1), HCC1395 (LAR), HCC1937 (BL1), MDA-MB-453 (LAR), HCC70 (BL2), HS578T (MSL), MDA-MB-157 (MSL) and MDA-MB-468 (BL1), were obtained from American type culture collection (ATCC), and SUM185PE (LAR) was obtained from ASTERAND BIOSCIENCE. All the cells belong to triple negative breast cancer (TNBC), and it is known which of six types (BL1, BL2, M, MSL, IM and LAR) these belong to by an existing classification method.
(§3) All the cells were cultured in a medium designated from a source of supply, and 2 mM L-glutamine and 10% fetal bovine serum (FBS) were supplemented.
(§4) Each type of cells was seeded in a 96 well titer plate at 1×10^4 cells/well, and trametinib, an MEK inhibitor (Medchem Express; 0.08, 0.16, 0.31, 0.63, 1.25, 2.5, 5, 10 and 20 μM), and wortmannin, a PI3K inhibitor (Wako Pure Chemical Industries, Ltd.; 0.08, 0.16, 0.31, 0.63, 1.25, 2.5, 5, 10 and 20 μM) were dissolved in Dimethyl Sulfoxide [DMSO] (Wako Pure Chemical Industries, Ltd.) in various concentrations and treated. In addition, the effect on cell growth was examined at 72 hours after the inhibitor by sulforhodamine B assay (manufactured by SIGMA-ALDRICH), and 50 μL of sulforhodamine B solution was added to each well and cells were left at room temperature for an hour for staining. The staining degree of metabolically survival cells was examined by monitoring absorbance at a wavelength of 565 nm using a microtiter plate. The absorbance of cells which were not treated with trametinib and wortmannin (treated with DMSO) was used as a control and defined as 100% to calculate a cell growth inhibition rate.
(§5) The cell lines were classified into 4 types, cell lines sensitive to wortmannin (hereinafter, PA), cell lines sensitive to trametinib (hereinafter, MA), cell lines resistant to wortmannin and trametinib (hereinafter, R), and others (hereinafter, S). In the classification, first the inhibition rate of each drug was calculated in a concentration of 1 μM, and the inhibition rate (%) by trametinib and the inhibition rate (%) by wortmannin were plotted on the X axis and Y axis respectively on a graph.
as §5, with “100 nM,” for “1 μM,”
as §5, with “10” for “1”, “graph. Using a 50% growth inhibition rate as an index of the inhibitive effect of a drug, cells were classified into 4 types by grid analysis.” for “graph.”

[2] = test system: HCC1187 (IM) cells; conditions: Homo sapiens, 72 hours, read-out: inhibition rate (%) by trametinib, classification by grid analysis
Protocol: as §1, §2, §3, §4, §5
as §5, with “100 nM,” for “1 μM,”
as §5, with “10” for “1”, “graph. Using a 50% growth inhibition rate as an index of the inhibitive effect of a drug, cells were classified into 4 types by grid analysis.” for “graph.”

[3] = test system: HCC1395 (LAR) cells; conditions: Homo sapiens, 72 hours, read-out: inhibition rate (%) by trametinib, classification by grid analysis
Protocol: as §1, §2, §3, §4, §5
as §5, with “100 nM,” for “1 μM,”
as §5, with “10” for “1”, “graph. Using a 50% growth inhibition rate as an index of the inhibitive effect of a drug, cells were classified into 4 types by grid analysis.” for “graph.”

[4] = test system: HCC1937 (BL1) cells; conditions: Homo sapiens, 72 hours, read-out: inhibition rate (%) by trametinib, classification by grid analysis
Protocol: as §1, §2, §3, §4, §5
as §5, with “100 nM,” for “1 μM,”
as §5, with “10” for “1”, “graph. Using a 50% growth inhibition rate as an index of the inhibitive effect of a drug, cells were classified into 4 types by grid analysis.” for “graph.”

[5] = test system: HCC38 (BL1) cells; conditions: Homo sapiens, 72 hours, read-out: inhibition rate (%) by trametinib, classification by grid analysis
Protocol: as §1, §2, §3, §4, §5
as §5, with “100 nM,” for “1 μM,”
as §5, with “10” for “1”, “graph. Using a 50% growth inhibition rate as an index of the inhibitive effect of a drug, cells were classified into 4 types by grid analysis.” for “graph.”

[6] = test system: HS578T (MSL) cells; conditions: Homo sapiens, Hs-578T, 72 hours, read-out: inhibition rate (%) by trametinib, classification by grid analysis
Protocol: as §1, §2, §3, §4, §5
as §5, with “100 nM,” for “1 μM,”
as §5, with “10” for “1”, “graph. Using a 50% growth inhibition rate as an index of the inhibitive effect of a drug, cells were classified into 4 types by grid analysis.” for “graph.”

[7] = test system: MDA-MB-157 (MSL) cells; conditions: Homo sapiens, 72 hours, read-out: inhibition rate (%) by trametinib, classification by grid analysis
Protocol: as §1, §2, §3, §4, §5
as §5, with “100 nM,” for “1 μM,”
as §5, with “10” for “1”, “graph. Using a 50% growth inhibition rate as an index of the inhibitive effect of a drug, cells were classified into 4 types by grid analysis.” for “graph.”

[8] = test system: MDA-MB-468 (BL1) cells; conditions: Homo sapiens, 72 hours, read-out: inhibition rate (%) by trametinib, classification by grid analysis
Protocol: as §1, §2, §3, §4, §5
as §5, with “100 nM,” for “1 μM,”
as §5, with “10” for “1”, “graph. Using a 50% growth inhibition rate as an index of the inhibitive effect of a drug, cells were classified into 4 types by grid analysis.” for “graph.”

[9] = test system: SUM185PE (LAR) cells; conditions: Homo sapiens, 72 hours, read-out: inhibition rate (%) by trametinib, classification by grid analysis
Protocol: as §1, §2, §3, §4, §5
as §5, with “100 nM,” for “1 μM,”
as §5, with “10” for “1”, “graph. Using a 50% growth inhibition rate as an index of the inhibitive effect of a drug, cells were classified into 4 types by grid analysis.” for “graph.”

[10] = 100 nM, index 12.5% growth inhibition rate
[11] = 1 μM, index 25% growth inhibition rate
[12] = 10 μM, index 50% growth inhibition rate

CC(=O)Nc1cccc(-n2c(=O)n(C3CC3)c(=O)c3c(Nc4ccc(I)cc4F)n(C)c(=O)c(C)c32)c1 [trametinib]
inhibition at 0.1 µM ([1]; HCC1143, 100 nM, index 12.5% growth inhibition rate): > 12.5% | inhibition at 1 µM ([1]; HCC1143, 1 μM, index 25% growth inhibition rate): > 25% | inhibition at 10 µM ([1]; HCC1143, 10 μM, index 50% growth inhibition rate): > 50% | inhibition at 0.1 µM ([2]; HCC1187, 100 nM, index 12.5% growth inhibition rate): > 12.5% | inhibition at 1 µM ([2]; HCC1187, 1 μM, index 25% growth inhibition rate): > 25% | inhibition at 10 µM ([2]; HCC1187, 10 μM, index 50% growth inhibition rate): > 50% | inhibition at 0.1 µM ([3]; HCC1395, 100 nM, index 12.5% growth inhibition rate): < 12.5% | inhibition at 1 µM ([3]; HCC1395, 1 μM, index 25% growth inhibition rate): < 25% | inhibition at 10 µM ([3]; HCC1395, 10 μM, index 50% growth inhibition rate): < 50% | inhibition at 0.1 µM ([4]; HCC1937, 100 nM, index 12.5% growth inhibition rate): < 12.5% | inhibition at 1 µM ([4]; HCC1937, 1 μM, index 25% growth inhibition rate): < 25% | inhibition at 10 µM ([4]; HCC1937, 10 μM, index 50% growth inhibition rate): < 50% | inhibition at 0.1 µM ([5]; HCC38, 100 nM, index 12.5% growth inhibition rate): > 12.5% | inhibition at 1 µM ([5]; HCC38, 1 μM, index 25% growth inhibition rate): > 25% | inhibition at 10 µM ([5]; HCC38, 10 μM, index 50% growth inhibition rate): > 50% | inhibition at 0.1 µM [6, 10]: < 12.5% | inhibition at 1 µM [6, 11]: < 25% | inhibition at 10 µM [6, 12]: < 50% | inhibition at 0.1 µM ([7]; MDA-MB-157, 100 nM, index 12.5% growth inhibition rate): < 12.5% | inhibition at 1 µM ([7]; MDA-MB-157, 1 μM, index 25% growth inhibition rate): < 25% | inhibition at 10 µM ([7]; MDA-MB-157, 10 μM, index 50% growth inhibition rate): < 50% | inhibition at 0.1 µM ([8]; MDA-MB-468, 100 nM, index 12.5% growth inhibition rate): < 12.5% | inhibition at 1 µM ([8]; MDA-MB-468, 1 μM, index 25% growth inhibition rate): < 25% | inhibition at 10 µM ([8]; MDA-MB-468, 10 μM, index 50% growth inhibition rate): < 50% | inhibition at 0.1 µM [9, 10]: < 12.5% | inhibition at 1 µM [9, 11]: < 25% | inhibition at 10 µM [9, 12]: < 50%
